From the supplement of paper PMC10307832

Experiments:
Assay in all cases: relative viability (nuclei count vs DMSO), 5 days (fraction); higher = more cells survive
[1] = test system: NCI-H1648
In short: (§1)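 Lung cancer cell lines in 1536-well plates got either a single drug or a fixed anchor-drug dose together with five library-drug doses (not always all listed) in √10 steps, by pin tool, on the day after seeding. Nuclei were counted after 5 days, and relative viability is the treated-to-vehicle ratio of nuclei counts. Values are medians of duplicate plates.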

[2] = test system: NCI-H596
In short: as §1

[3] = test system: A549
In short: as §1

[4] = test system: NCI-H1703
In short: as §1

[5] = test system: IA-LM
In short: as §1

`CC(C)Oc1cc(Nc2nc(N[C@@H](C)c3ccc(F)cn3)ncc2Cl)n[nH]1` [AZ23] + CC(=O)Nc1cccc(-n2c(=O)n(C3CC3)c(=O)c3c(Nc4ccc(I)cc4F)n(C)c(=O)c(C)c32)c1 [Trametinib] (partner 0.02 µM) gave a relative viability ([1]; first compound 0.01 µM) of 0.374, a relative viability ([1]; first compound 0.03162 µM) of 0.427 and a relative viability ([1]; first compound 0.3162 µM) of 0.314. The relative viability ([2]; first compound 0.01 µM) was 0.739, the relative viability ([2]; first compound 0.03162 µM) was 0.779 and the relative viability ([2]; first compound 0.3162 µM) was 0.783.

For `COc1cc(N2CCC(C(N)=O)CC2)ccc1Nc1nc(N)c(Cl)c(Nc2ccccc2S(=O)(=O)C(C)C)n1` [HG-5-88-01] + Nc1ncn([C@H]2C[C@H](O)[C@@H](CO)O2)c(=O)n1 [Decitabine] (partner 2 µM), the relative viability ([3]; first compound 0.04 µM) was 0.296, the relative viability ([3]; first compound 0.1265 µM) was 0.34 and the relative viability ([3]; first compound 0.4 µM) was 0.274. The relative viability ([3]; first compound 1.265 µM) was 0.246, the relative viability ([3]; first compound 4 µM) was 0.388 and the relative viability ([1]; first compound 0.04 µM) was 0.5. For the same compound, the relative viability ([1]; first compound 0.1265 µM) was 0.443, the relative viability ([1]; first compound 0.4 µM) was 0.457 and the relative viability ([1]; first compound 1.265 µM) was 0.359. For the same compound, the relative viability ([1]; first compound 4 µM) was 0.292, the relative viability ([2]; first compound 0.04 µM) was 1.02 and the relative viability ([2]; first compound 0.1265 µM) was 0.973. For the same compound, the relative viability ([2]; first compound 0.4 µM) was 1.04, the relative viability ([2]; first compound 1.265 µM) was 0.981 and the relative viability ([2]; first compound 4 µM) was 0.974.

Work on `COc1cc(N2CCC(C(N)=O)CC2)ccc1Nc1nc(N)c(Cl)c(Nc2ccccc2S(=O)(=O)C(C)C)n1` [HG-5-88-01] + NC(=O)Nc1cc(-c2cccc(F)c2)sc1C(=O)N[C@H]1CCCNC1 [AZD7762] (partner 0.2 µM) yielded a relative viability ([1]; first compound 0.04 µM) of 0.63, a relative viability ([1]; first compound 0.1265 µM) of 0.624 and a relative viability ([1]; first compound 0.4 µM) of 0.695. It also gave a relative viability ([1]; first compound 1.265 µM) of 0.683, a relative viability ([1]; first compound 4 µM) of 0.654 and a relative viability ([4]; first compound 0.04 µM) of 0.106. It also gave a relative viability ([4]; first compound 0.1265 µM) of 0.133, a relative viability ([4]; first compound 1.265 µM) of 0.122 and a relative viability ([4]; first compound 4 µM) of 0.124. For the same compound, the relative viability ([2]; first compound 0.04 µM) was 1.05, the relative viability ([2]; first compound 0.1265 µM) was 1.07 and the relative viability ([2]; first compound 0.4 µM) was 1.04. It also gave a relative viability ([2]; first compound 1.265 µM) of 1.06 and a relative viability ([2]; first compound 4 µM) of 0.697.

With `CC(C)Oc1cc(Nc2nc(N[C@@H](C)c3ccc(F)cn3)ncc2Cl)n[nH]1` [AZ23] + O=C(CCCCCCC(=O)Nc1ccccc1)NO [Vorinostat] (partner 1 µM) the relative viability ([5]; first compound 0.01 µM) was 0.895, the relative viability ([5]; first compound 0.03162 µM) was 1.05 and the relative viability ([5]; first compound 0.3162 µM) was 1.06. For the same compound, the relative viability ([1]; first compound 0.01 µM) was 0.373, the relative viability ([1]; first compound 0.03162 µM) was 0.567 and the relative viability ([1]; first compound 0.3162 µM) was 0.316. For the same compound, the relative viability ([2]; first compound 0.01 µM) was 0.523, the relative viability ([2]; first compound 0.03162 µM) was 0.622 and the relative viability ([2]; first compound 0.3162 µM) was 0.582.

`Clc1ccc(Nc2nnc(Cc3ccncc3)c3ccccc23)cc1` [Vatalanib] + NC(=O)Nc1cc(-c2cccc(F)c2)sc1C(=O)N[C@H]1CCCNC1 [AZD7762] (partner 0.2 µM) showed a relative viability ([1]; first compound 0.04 µM) of 0.528, a relative viability ([1]; first compound 0.1265 µM) of 0.632 and a relative viability ([1]; first compound 0.4 µM) of 0.665. The relative viability ([1]; first compound 1.265 µM) was 0.655, the relative viability ([1]; first compound 4 µM) was 0.735 and the relative viability ([4]; first compound 0.04 µM) was 0.128. It also gave a relative viability ([4]; first compound 0.1265 µM) of 0.14, a relative viability ([4]; first compound 0.4 µM) of 0.126 and a relative viability ([4]; first compound 4 µM) of 0.109. For the same compound, the relative viability ([2]; first compound 0.04 µM) was 1.11, the relative viability ([2]; first compound 0.1265 µM) was 1.25 and the relative viability ([2]; first compound 0.4 µM) was 1.18. It also gave a relative viability ([2]; first compound 1.265 µM) of 1.1 and a relative viability ([2]; first compound 4 µM) of 0.907.

`C[C@@H]1CN(CC(=O)Nc2ccc3c(c2)Cc2cccc(-c4cc(=O)cc(N5CCOCC5)o4)c2S3)C[C@H](C)O1` + Nc1nc2[nH]cc(CCc3ccc(C(=O)N[C@@H](CCC(=O)O)C(=O)O)cc3)c2c(=O)[nH]1 [Pemetrexed] (partner 0.2 µM) gave a relative viability ([1]; first compound 0.04 µM) of 0.588, a relative viability ([1]; first compound 0.1265 µM) of 0.801 and a relative viability ([1]; first compound 0.4 µM) of 0.747. For the same compound, the relative viability ([1]; first compound 4 µM) was 0.64, the relative viability ([2]; first compound 0.04 µM) was 0.548 and the relative viability ([2]; first compound 0.1265 µM) was 0.535. It also gave a relative viability ([2]; first compound 0.4 µM) of 0.429 and a relative viability ([2]; first compound 4 µM) of 0.481.

`C[C@@H]1CN(CC(=O)Nc2ccc3c(c2)Cc2cccc(-c4cc(=O)cc(N5CCOCC5)o4)c2S3)C[C@H](C)O1` + NC(=O)Nc1cc(-c2cccc(F)c2)sc1C(=O)N[C@H]1CCCNC1 [AZD7762] (partner 0.2 µM) showed a relative viability ([1]; first compound 0.04 µM) of 0.519, a relative viability ([1]; first compound 0.1265 µM) of 0.574 and a relative viability ([1]; first compound 0.4 µM) of 0.961. For the same compound, the relative viability ([1]; first compound 4 µM) was 0.604, the relative viability ([4]; first compound 0.04 µM) was 0.137 and the relative viability ([4]; first compound 0.1265 µM) was 0.11. For the same compound, the relative viability ([4]; first compound 0.4 µM) was 0.141, the relative viability ([4]; first compound 4 µM) was 0.117 and the relative viability ([2]; first compound 0.04 µM) was 1.12. For the same compound, the relative viability ([2]; first compound 0.1265 µM) was 1.1, the relative viability ([2]; first compound 0.4 µM) was 1.1 and the relative viability ([2]; first compound 4 µM) was 1.06.

In the case of `Clc1ccc(Nc2nnc(Cc3ccncc3)c3ccccc23)cc1` [Vatalanib] + Nc1ncn([C@H]2C[C@H](O)[C@@H](CO)O2)c(=O)n1 [Decitabine] (partner 2 µM), the relative viability ([3]; first compound 0.04 µM) is reported as 0.238, the relative viability ([3]; first compound 0.1265 µM) is reported as 0.451 and the relative viability ([3]; first compound 0.4 µM) is reported as 0.313. The relative viability ([3]; first compound 1.265 µM) was 0.213, the relative viability ([3]; first compound 4 µM) was 0.295 and the relative viability ([1]; first compound 0.04 µM) was 0.497. For the same compound, the relative viability ([1]; first compound 0.1265 µM) was 0.462, the relative viability ([1]; first compound 0.4 µM) was 0.514 and the relative viability ([1]; first compound 1.265 µM) was 0.425. The relative viability ([1]; first compound 4 µM) was 0.482, the relative viability ([2]; first compound 0.04 µM) was 0.921 and the relative viability ([2]; first compound 0.1265 µM) was 1.14. For the same compound, the relative viability ([2]; first compound 0.4 µM) was 1.22, the relative viability ([2]; first compound 1.265 µM) was 1.01 and the relative viability ([2]; first compound 4 µM) was 1.02.

In the case of `C[C@@H]1CN(CC(=O)Nc2ccc3c(c2)Cc2cccc(-c4cc(=O)cc(N5CCOCC5)o4)c2S3)C[C@H](C)O1` + CC(=O)c1c(C)c2cnc(Nc3ccc(N4CCNCC4)cn3)nc2n(C2CCCC2)c1=O [Palbociclib] (partner 0.5 µM), the relative viability ([1]; first compound 0.04 µM) is reported as 0.265, the relative viability ([1]; first compound 0.1265 µM) is reported as 0.322 and the relative viability ([1]; first compound 0.4 µM) is reported as 0.373. For the same compound, the relative viability ([1]; first compound 4 µM) was 0.26.

`Clc1ccc(Nc2nnc(Cc3ccncc3)c3ccccc23)cc1` [Vatalanib] + CC(=O)c1c(C)c2cnc(Nc3ccc(N4CCNCC4)cn3)nc2n(C2CCCC2)c1=O [Palbociclib] (partner 0.5 µM) showed a relative viability ([1]; first compound 0.04 µM) of 0.268, a relative viability ([1]; first compound 0.1265 µM) of 0.307 and a relative viability ([1]; first compound 0.4 µM) of 0.26. It also gave a relative viability ([1]; first compound 1.265 µM) of 0.233 and a relative viability ([1]; first compound 4 µM) of 0.302.

`COc1cc(N2CCC(C(N)=O)CC2)ccc1Nc1nc(N)c(Cl)c(Nc2ccccc2S(=O)(=O)C(C)C)n1` [HG-5-88-01] + CC(=O)c1c(C)c2cnc(Nc3ccc(N4CCNCC4)cn3)nc2n(C2CCCC2)c1=O [Palbociclib] (partner 0.5 µM) gave a relative viability ([1]; first compound 0.04 µM) of 0.291, a relative viability ([1]; first compound 0.1265 µM) of 0.27 and a relative viability ([1]; first compound 0.4 µM) of 0.321. The relative viability ([1]; first compound 1.265 µM) was 0.206 and the relative viability ([1]; first compound 4 µM) was 0.244.

With `CC(C)Oc1cc(Nc2nc(N[C@@H](C)c3ccc(F)cn3)ncc2Cl)n[nH]1` [AZ23] + Nc1nc2[nH]cc(CCc3ccc(C(=O)N[C@@H](CCC(=O)O)C(=O)O)cc3)c2c(=O)[nH]1 [Pemetrexed] (partner 0.2 µM) the relative viability ([1]; first compound 0.01 µM) was 0.706, the relative viability ([1]; first compound 0.03162 µM) was 0.632 and the relative viability ([1]; first compound 0.3162 µM) was 0.807. It also gave a relative viability ([2]; first compound 0.01 µM) of 0.422, a relative viability ([2]; first compound 0.03162 µM) of 0.55 and a relative viability ([2]; first compound 0.3162 µM) of 0.509.

With `COc1cc(N2CCC(C(N)=O)CC2)ccc1Nc1nc(N)c(Cl)c(Nc2ccccc2S(=O)(=O)C(C)C)n1` [HG-5-88-01] + Nc1nc2[nH]cc(CCc3ccc(C(=O)N[C@@H](CCC(=O)O)C(=O)O)cc3)c2c(=O)[nH]1 [Pemetrexed] (partner 0.2 µM) the relative viability ([1]; first compound 0.04 µM) was 0.772, the relative viability ([1]; first compound 0.1265 µM) was 0.719 and the relative viability ([1]; first compound 0.4 µM) was 0.605. The relative viability ([1]; first compound 1.265 µM) was 0.596, the relative viability ([1]; first compound 4 µM) was 0.562 and the relative viability ([2]; first compound 0.04 µM) was 0.499. For the same compound, the relative viability ([2]; first compound 0.1265 µM) was 0.548, the relative viability ([2]; first compound 0.4 µM) was 0.478 and the relative viability ([2]; first compound 1.265 µM) was 0.482. It also gave a relative viability ([2]; first compound 4 µM) of 0.441.

`CC(C)Oc1cc(Nc2nc(N[C@@H](C)c3ccc(F)cn3)ncc2Cl)n[nH]1` [AZ23] + CC(=O)c1c(C)c2cnc(Nc3ccc(N4CCNCC4)cn3)nc2n(C2CCCC2)c1=O [Palbociclib] (partner 0.5 µM) gave a relative viability ([1]; first compound 0.01 µM) of 0.227, a relative viability ([1]; first compound 0.03162 µM) of 0.208 and a relative viability ([1]; first compound 0.3162 µM) of 0.23.
